Assay results reported in paper PMC10518257 (Nature Cancer, 2023).
pEC50: −log10 of the molar value. “And” between values parts separate entries of the source, which are not always exact repeats. Equal values may be shown once. Read-outs that look alike come from different tables or passages of the source.

Legend:
[1] = Animal weight of tumor-bearing mice
[2] = system: ECLC5 luciferase cells implanted intracranially; assay: Intracranial efficacy study; format: in vivo, NSG mice; details: for Luminescence Data: Fig. 8e ECLC5 intracranial, 50 mg/kg BID, individual animals
[3] = system: Ba/F3 KIF5B–RET^WT allograft tumors; assay: Subcutaneous allograft efficacy study; format: in vivo, BALB/c nude mice
[4] = system: LUAD-0002AS1 cells (KIF5B::RET); assay: Dose-response western blotting, EC50 for inhibition of protein phosphorylation; format: cell-based; details: Homo sapiens, LUAD-0002AS1, 2 h, densitometry

SMILES: COCc1ccc(NC(=O)c2c(C#CCN3CCOCC3)n(C3(C)CC3)c3ncnc(N)c23)cc1 [Vepafestinib, 4-amino-N-[4-(methoxymethyl)phenyl]-7-(1-methylcyclopropyl)-6-[3-(morpholin-4-yl)prop-1-yn-1-yl]-7H-pyrrolo[2,3-d]pyrimidine-5-carboxamide]
- Animal Weight (g), Mean ([1]; Ba/F3-KIF5B::RET tumor-bearing mice (Ext. Data Fig 8h), 50 mg/kg BID, day 8): 29.3 g
- Animal Weight (g), Mean ([1]; Ba/F3-KIF5B::RET tumor-bearing mice (Ext. Data Fig 8h), 50 mg/kg BID, day 11): 29.0 g
- Animal Weight (g), Mean ([1]; Ba/F3-KIF5B::RET tumor-bearing mice (Ext. Data Fig 8h), 50 mg/kg BID, day 15): 29.0 g
- effect on animal health or animal weight ([1]; ECLC5B xenograft, all dosages, P > 0.05): No dosage of vepafestinib had any adverse effect
- Animal Weight ([1]; ECLC5 Xenografts, 25 mg/kg BID, treatment day 7, individual animals, 25 mg/kg): 24 g (2×) and 22 g and 21 g and 27 g
- Animal Weight ([1]; ECLC5 Xenografts, 25 mg/kg BID, treatment day 11, individual animals, 25 mg/kg): 24 g and 22 g
- Animal Weight ([1]; ECLC5 Xenografts, 50 mg/kg BID, treatment day 7, individual animals, 50 mg/kg): 20 g and 23 g (2×) and 21 g and 22 g
- Animal Weight ([1]; ECLC5 Xenografts, 50 mg/kg QD, treatment day 7, individual animals, 50 mg/kg): 22 g (2×) and 21 g and 23 g and 24 g
- Animal Weight ([1]; ECLC5 Xenografts, 100 mg/kg QD, treatment day 7, individual animals, 100 mg/kg): 22 g (3×) and 24 g and 25 g
- Animal Weight (g), Mean ([1]; LC-2/ad xenograft mice, 25 mg/kg BID, day 0): 25.9 g
- Animal Weight (g), Mean ([1]; LC-2/ad xenograft mice, 25 mg/kg BID, day 4): 25.1 g
- Animal Weight (g), Mean ([1]; LC-2/ad xenograft mice, 25 mg/kg BID, day 8): 24.6 g
- Animal Weight (g), Mean ([1]; LC-2/ad xenograft mice, 25 mg/kg BID, day 11): 24.4 g
- Animal Weight (g), Mean ([1]; LC-2/ad xenograft mice, 25 mg/kg BID, day 15): 23.5 g
- Animal Weight (g), Mean ([1]; LC-2/ad xenograft mice, 50 mg/kg BID, day 0): 25.1 g
- Animal Weight (g), Mean ([1]; LC-2/ad xenograft mice, 50 mg/kg BID, day 4): 25.3 g
- Animal Weight (g), Mean ([1]; LC-2/ad xenograft mice, 50 mg/kg BID, day 8): 24.2 g
- Animal Weight (g), Mean ([1]; LC-2/ad xenograft mice, 50 mg/kg BID, day 11): 24.4 g
- Animal Weight (g), Mean ([1]; LC-2/ad xenograft mice, 50 mg/kg BID, day 15): 23.5 g
- Animal Weight (g), Mean ([1]; LC-2/ad xenograft mice, 50 mg/kg QD, day 0): 25.0 g
- Animal Weight (g), Mean ([1]; LC-2/ad xenograft mice, 50 mg/kg QD, day 4): 24.8 g
- Animal Weight (g), Mean ([1]; LC-2/ad xenograft mice, 50 mg/kg QD, day 8): 24.7 g
- Animal Weight (g), Mean ([1]; LC-2/ad xenograft mice, 50 mg/kg QD, day 11): 25.0 g
- Animal Weight (g), Mean ([1]; LC-2/ad xenograft mice, 50 mg/kg QD, day 15): 24.3 g
- Animal Weight ([1]; NIH-3T3-CCDC6::RET xenografts, 25 mg/kg BID, day 0, 25 mg/kg): 22 g and 21 g and 24 g
- Animal Weight ([1]; NIH-3T3-CCDC6::RET xenografts, 25 mg/kg BID, day 2, 25 mg/kg): 23 g and 21 g and 22 g
- Animal Weight ([1]; NIH-3T3-CCDC6::RET xenografts, 25 mg/kg BID, day 5, 25 mg/kg): 23 g and 22 g and 24 g
- Animal Weight ([1]; NIH-3T3-CCDC6::RET xenografts, 25 mg/kg BID, day 8, 25 mg/kg): 23 g and 22 g
- Animal Weight ([1]; NIH-3T3-CCDC6::RET xenografts, 25 mg/kg QD, day 0, 25 mg/kg): 24 g and 22 g and 23 g and 21 g
- Animal Weight ([1]; NIH-3T3-CCDC6::RET xenografts, 25 mg/kg QD, day 2, 25 mg/kg): 25 g and 24 g and 22 g
- Animal Weight ([1]; NIH-3T3-CCDC6::RET xenografts, 25 mg/kg QD, day 5, 25 mg/kg): 22 g and 23 g and 24 g
- Animal Weight ([1]; NIH-3T3-CCDC6::RET xenografts, 25 mg/kg QD, day 8, 25 mg/kg): 25 g and 23 g and 24 g
- Animal Weight ([1]; NIH-3T3-CCDC6::RET xenografts, 50 mg/kg BID, day 0, 50 mg/kg): 22 g and 19 g and 21 g
- Animal Weight ([1]; NIH-3T3-CCDC6::RET xenografts, 50 mg/kg BID, day 2, 50 mg/kg): 20 g and 24 g and 23 g and 21 g and 22 g
- Animal Weight ([1]; NIH-3T3-CCDC6::RET xenografts, 50 mg/kg BID, day 5, 50 mg/kg): 21 g and 24 g and 23 g and 20 g
- Animal Weight ([1]; NIH-3T3-CCDC6::RET xenografts, 50 mg/kg BID, day 8, 50 mg/kg): 21 g and 23 g and 24 g
- Animal Weight ([1]; NIH-3T3-CCDC6::RET xenografts, 50 mg/kg QD, day 0, 50 mg/kg): 22 g and 21 g
- Animal Weight ([1]; NIH-3T3-CCDC6::RET xenografts, 50 mg/kg QD, day 2, 50 mg/kg): 24 g and 23 g
- Animal Weight ([1]; NIH-3T3-CCDC6::RET xenografts, 50 mg/kg QD, day 5, 50 mg/kg): 23 g and 24 g
- Animal Weight ([1]; NIH-3T3-CCDC6::RET xenografts, 50 mg/kg QD, day 8, 50 mg/kg): 24 g and 25 g
- Animal Weight ([1]; NIH-3T3-CCDC6::RET xenografts, 100 mg/kg QD, day 0, 100 mg/kg): 22 g and 21 g and 20 g and 19 g
- Animal Weight ([1]; NIH-3T3-CCDC6::RET xenografts, 100 mg/kg QD, day 2, 100 mg/kg): 23 g and 22 g and 19 g
- Animal Weight ([1]; NIH-3T3-CCDC6::RET xenografts, 100 mg/kg QD, day 5, 100 mg/kg): 23 g and 22 g and 24 g and 21 g
- Animal Weight ([1]; NIH-3T3-CCDC6::RET xenografts, 100 mg/kg QD, day 8, 100 mg/kg): 23 g and 22 g and 24 g and 21 g
- survival time ([2]; 50 mg per kg BID, all animals alive): > 139 d of treatment
- Luminescence Data ([2]; treatment day 0 (=1)): 1
- Luminescence Data ([2]; treatment day 5, day 0 = 1, 50 mg/kg): 0.4116 and 0.5677 and 0.6168 and 0.1116 and 0.9191 and 0.3141
- Luminescence Data ([2]; treatment day 12, day 0 = 1, 50 mg/kg): 0.3041 and 0.6223 and 0.3951 and 0.05187 and 0.856 and 0.4174
- Luminescence Data ([2]; treatment day 18, day 0 = 1, 50 mg/kg): 0.3959 and 0.7406 and 0.6024 and 0.03931 and 0.9545 and 0.2802
- Luminescence Data ([2]; treatment day 26, day 0 = 1, 50 mg/kg): 0.3977 and 0.5749 and 0.4469 and 0.01537 and 0.7719 and 0.2517
- Luminescence Data ([2]; treatment day 33, day 0 = 1, 50 mg/kg): 0.4164 and 0.7522 and 0.6219 and 0.01856 and 1.136 and 0.285
- Luminescence Data ([2]; treatment day 40, day 0 = 1, 50 mg/kg): 0.3201 and 0.5375 and 0.4135 and 0.01963 and 0.792 and 0.1799
- Luminescence Data ([2]; treatment day 46, day 0 = 1, 50 mg/kg): 0.3305 and 0.5368 and 0.3264 and 0.008566 and 0.9694 and 0.2044
- Luminescence Data ([2]; treatment day 55, day 0 = 1, 50 mg/kg): 0.516 and 0.834 and 0.6149 and 0.01696 and 1.167 and 0.3646
- Luminescence Data ([2]; treatment day 61, day 0 = 1, 50 mg/kg): 0.3872 and 0.6582 and 0.5284 and 0.01449 and 1.158 and 0.246
- Luminescence Data ([2]; treatment day 68, day 0 = 1, 50 mg/kg): 0.3804 and 0.71 and 0.4932 and 0.01469 and 1.521 and 0.2588
- Luminescence Data ([2]; treatment day 75, day 0 = 1, 50 mg/kg): 0.2695 and 0.603 and 0.5415 and 0.02346 and 1.537 and 0.2239
- Luminescence Data ([2]; treatment day 82, day 0 = 1, 50 mg/kg): 0.477 and 0.7647 and 0.421 and 0.02545 and 2.278 and 0.2761
- Luminescence Data ([2]; treatment day 89, day 0 = 1, 50 mg/kg): 0.4292 and 0.858 and 0.6342 and 0.04079 and 3.665 and 0.3289
- Luminescence Data ([2]; treatment day 96, day 0 = 1, 50 mg/kg): 0.3189 and 0.6963 and 0.5402 and 0.01338 and 5.016 and 0.1926
- Luminescence Data ([2]; treatment day 103, day 0 = 1, 50 mg/kg): 0.4201 and 0.6542 and 0.7489 and 0.02359 and 6.915 and 0.2847
- Luminescence Data ([2]; treatment day 110, day 0 = 1, 50 mg/kg): 0.2991 and 0.6305 and 0.5409 and 0.02851
- Tumor Volume Mean ([3]; Ba/F3-KIF5B::RET, 50 mg/kg BID, Day 1, Ext. Data Fig. 9a): 153.20 mm3
- Tumor Volume Mean ([3]; Ba/F3-KIF5B::RET, 50 mg/kg BID, Day 1, Ext. Data Fig. 9b): 219.73 mm3
- Tumor Volume Mean ([3]; Ba/F3-KIF5B::RET, 50 mg/kg BID, Day 4, Ext. Data Fig. 9a): 87.32 mm3
- Tumor Volume Mean ([3]; Ba/F3-KIF5B::RET, 50 mg/kg BID, Day 4, Ext. Data Fig. 9b): 116.10 mm3
- Tumor Volume Mean ([3]; Ba/F3-KIF5B::RET, 50 mg/kg BID, Day 8, Ext. Data Fig. 9a): 98.53 mm3
- Tumor Volume Mean ([3]; Ba/F3-KIF5B::RET, 50 mg/kg BID, Day 8, Ext. Data Fig. 9b): 190.23 mm3
- Tumor Volume Mean ([3]; Ba/F3-KIF5B::RET, 50 mg/kg BID, Day 11, Ext. Data Fig. 9a): 80.59 mm3
- Tumor Volume Mean ([3]; Ba/F3-KIF5B::RET, 50 mg/kg BID, Day 11, Ext. Data Fig. 9b): 68.61 mm3
- Tumor Volume Mean ([3]; Ba/F3-KIF5B::RET, 50 mg/kg BID, Day 15, Ext. Data Fig. 9a): 80.54 mm3
- Tumor Volume Mean ([3]; Ba/F3-KIF5B::RET, 50 mg/kg BID, Day 15, Ext. Data Fig. 9b): 131.30 mm3
- Tumor Volume Mean ([3]; Fig. 7a Ba/F3-KIF5B::RET, 25 mg/kg BID, day 0, in mm³ (unit assumed)): 186.18
- Tumor Volume Mean ([3]; Fig. 7a Ba/F3-KIF5B::RET, 25 mg/kg BID, day 4, in mm³ (unit assumed)): 191.92
- Tumor Volume Mean ([3]; Fig. 7a Ba/F3-KIF5B::RET, 25 mg/kg BID, day 8, in mm³ (unit assumed)): 184.92
- Tumor Volume Mean ([3]; Fig. 7a Ba/F3-KIF5B::RET, 25 mg/kg BID, day 11, in mm³ (unit assumed)): 174.38
- Tumor Volume Mean ([3]; Fig. 7a Ba/F3-KIF5B::RET, 25 mg/kg BID, day 15, in mm³ (unit assumed)): 165.09
- Tumor Volume Mean ([3]; Fig. 7a Ba/F3-KIF5B::RET, 50 mg/kg BID, day 0, in mm³ (unit assumed)): 187.80
- Tumor Volume Mean ([3]; Fig. 7a Ba/F3-KIF5B::RET, 50 mg/kg BID, day 4, in mm³ (unit assumed)): 184.99
- Tumor Volume Mean ([3]; Fig. 7a Ba/F3-KIF5B::RET, 50 mg/kg BID, day 8, in mm³ (unit assumed)): 148.12
- Tumor Volume Mean ([3]; Fig. 7a Ba/F3-KIF5B::RET, 50 mg/kg BID, day 11, in mm³ (unit assumed)): 106.67
- Tumor Volume Mean ([3]; Fig. 7a Ba/F3-KIF5B::RET, 50 mg/kg BID, day 15, in mm³ (unit assumed)): 83.29
- pEC50 ([4]; read-out: EC50 for Inhibition of Protein Phosphorylation (95% CI), AKT S473): 8.85
- pEC50 ([4]; read-out: EC50 for Inhibition of Protein Phosphorylation (95% CI), ERK1/2 T202/Y204): 9.05
- pEC50 ([4]; read-out: EC50 for Inhibition of Protein Phosphorylation (95% CI), MEK1/2 S217/S221): 8.82
- pEC50 ([4]; read-out: EC50 for Inhibition of Protein Phosphorylation (95% CI), P70 RSK T421/S424): 8.31
- pEC50 ([4]; read-out: EC50 for Inhibition of Protein Phosphorylation (95% CI), RET Y905): 8.89
- pEC50 ([4]; read-out: EC50 for Inhibition of Protein Phosphorylation (95% CI), S6RP S235/S236): 7.82
